The record followed here is paper PMC7830115, “Design, Synthesis, Molecular Docking, and Tumor Resistance Reversal Activity Evaluation of Matrine Derivative with Thiophene Structure” (Molecules, 2021).

Common to all, as to type: cell-based
One test has as its system HK-1. The experiment in a line: MTT cytotoxicity assay, HK-1. The settings on record: HK-1, 72 h, mean ± SD. As to the method: (§1) Prior to determining the combined inhibitory effects against NPC CDDP-resistance cells, the cytotoxicity effects of these 8 derivatives were evaluated against three NPC cell lines (CNE2, HONE1, and HK-1) and CDDP resistance cell line (CNE2/CDDP) by using MTT (3-(4,5-dimethyl-2-thiazolyl)-2,5-diphenyl-2-H-tetrazolium bromide) assays. […] Moreover, a liver normal cell LO2 was involved to evaluate the selectivity of these 8 compounds by using MTT assays.
(§2) Nasopharyngeal carcinoma cells (CNE2, HONE1, and CNE2/CDDP) were purchased from Shanghai Aulu Biological Technologh Co., Ltd. (Shanghai, China). HK-1 cell was purchased from Shanghai Shunran Biological Technologh Co., Ltd. CNE2, HONE1, and HK-1 were cultured in DMEM medium supplemented with 10% fetal bovine serum, 1% penicillin-streptomycin. CDDP-resistant NPC cell CNE2/CDDP was cultured in DMEM medium supplemented with CDDP to sustain its drug resistance. Cell viability was detected using the MTT assay. All the 8 derivatives were resolved with DMSO to make a storage solution at 1 M, and CDDP was resolved with phosphate buffer saline (PBS) to make a storage solution at 100 mM. The maximum concentrations of these 8 derivatives and CDDP used in MTT assays were set as 1 mM and 100 µM diluted with DMEM medium, respectively. Medium with 0.1% DMSO was set as control. To begin, an initial MTT assay was conducted to evaluate the cytotoxicity of 3a~3h with a dose range of 50, 100, 200, 400, and 800 µM. Then, a more precise dose range was set to calculate the IC50 of each compound (For 3a~3e: 50, 100, 200, 400, 600, and 800 µM; for 3f~3h: 12.5, 25, 50, 100, 200, and 400 µM). Then, 5000 cells were seeded in a 96-well plate for each well and treated with respective compounds at different concentrations for 72 h following additional treatment with MTT for 2~3 h. Then, MTT was removed and 150 µL DMSO was added into each well and the absorption values were measured at 490 nm using a SpectraMAX M5plate reader (Silicon Valley, CA, USA).

In the next test the test system is LO2. The test is described as follows: MTT cytotoxicity assay, LO2 normal liver cell. The settings on record: Homo sapiens, L02, 72 h, mean ± SD. The protocol: as §1, §2
On the technique in general: Tetrazolium assays rely on reduction of a dye to a coloured formazan, in cell work by metabolically active cells.

In test [1] the test system is CNE2/CDDP cells. The test is described as follows: Synergistic inhibitory effect with CDDP, combination index (Chou-Talalay). The settings on record: treated simultaneously with 3f (20, 40, 60 µM) and CDDP (5, 10, 15 µM), 72 h; CI < 1 synergism. The protocol:
To determine whether compound 3f display synergistic inhibitory effects with CDDP against CNE2/CDDP cells, an MTT assay was performed. Cells were co-treated with compound 3f and CDDP or treated with CDDP or 3f alone. There are 9 groups of the combination between 3f and CDDP (Table 2). Inhibition rates were calculated, and the fraction affected (Fa) and CI (Combination Index) were generated for each group, and dose–effect curves were obtained. The CI greater than, equal to, and less than 1.0 indicate antagonistic, additive and synergistic effects, respectively.
The combination index (CI) was evaluated using Calcusyn 2.0 based on the Chou-Talalay method. Data from cell viability assays were applied to the CI calculation.
Figure 2 Synergistic inhibitory effects of compound 3f with CDDP in CNE2/CDDP cells. CNE2/CDDP cells were cultured with 3f and/or CDDP. After 72 h, 3-(4,5-dimethyl-2-thiazolyl)-2,5-diphenyl-2-H-tetrazolium bromide (MTT) was added. Two hours later, optical density (OD) was detected, and the inhibition rate was quantified. Combination Index (CI) plots were then generated using the Chou-Talay method and Calcusyn software.

The subject of a further test is CNE2. The experiment in a line: MTT cytotoxicity assay, CNE2. The settings on record: Homo sapiens, CNE-2, 72 h, mean ± SD. As to the method: as §1, §2
Test [2] has as its system CNE2/CDDP cells. The test is described as follows: Apoptosis assay (Annexin V-FITC/PI, FACS). Conditions: 24 h, mean ± SD. The protocol: Subsequently, to further verify whether the synergistic effects of compound 3f with CDDP involved cell death, an apoptosis assay was conducted. CNE2/CDDP cells were co-treated with CDDP and compound 3f, or CDDP and 3f alone for 24 h. Then, cells were harvested for staining by using an apoptosis kit, following FACS detection (Figure 3a). Then, the data from three independent experiments were analyzed and the results were shown in the form of histogram (Figure 3b).
CNE2/CDDP cells (3 × 10^5) were seeded into a 6-well plate for each well. Twenty-four hours later, medium was removed and cells were treated with different compounds for […]. Then, cells were harvested, washed with cold PBS, and stained with Annexin V-FITC and PI for 15 min in dark. Finally, samples were analyzed by flow cytometer.
Figure 3 Compound 3f (40 µM) increased apoptosis rate of CDDP (4 µg/mL) in CNE2/CDDP cells. (a), representative apoptosis detection by FACS. (b), three independent experiments of apoptosis assays were analyzed and p-value was calculated. Data are represented as mean ± SD. Bar means SD value * p < 0.05, compared with CDDP; # p < 0.05, compared with 3f.

Molecules are shown by their SMILES.

What is called IC50 is the concentration that inhibits the measured activity by half. Lower therefore signals inhibition by little substance. For `S=C1C(=Cc2ccc(Cl)s2)CCC2C3CCCN4CCCC(CN12)C34` (stereo not drawn) [3f, 14-((5-chlorothiophen-2-yl)methylene)thiomatrine], the results for the IC50 with HK-1, in the test with LO2 and with CNE2 were 51.3 ± 3.5 µM, 72 ± 5.8 µM and 35.7 ± 3.4 µM, respectively. Further, the “CI (Combination Index)” value with CNE2/CDDP cells [1] is “less than 1”. Also, the “cell apoptosis, treatment alone” value with CNE2/CDDP cells [2] (CDDP 4 µg/mL or 3f 40 µM alone, three independent experiments) was 9.97 ± 1.36. Besides, the “cell apoptosis, combined treatment with CDDP” value in the test on CNE2/CDDP cells [2] (CDDP (4 µg/mL) and 3f (40 µM) combined) worked out at 15.53 ± 1.61.
